Some test systems named below: DMS 114 small cell lung; SNB-78 CNS; DLD-1 colon; M19-MEL melanoma; DMS 273 small cell lung; HOP-18 NSCLC; LXFL 529 NSCLC; MDA-N; RXF-631 renal; P388 leukemia; SN12K1 renal; P388/ADR leukemia.
Common to all, as to test: NCI tumour cell line growth inhibition, 48 h

Several values for one entry are separate records, joined by “and”; a condition that tells them apart may be missing. Equal values may be shown once.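 Grown in 96-well plates, cells were treated for 48 hours with each compound at five concentrations. Insufficient inhibition: endpoint recorded as highest concentration tested. At the GI50, growth is halved. Definition used: TGI = concentration required for complete inhibition of growth.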

As for `C[C@@]12CCCC(=O)N1[C@@H](CO)C(c1ccccc1)O2` (stereo partly specified), the TGI with DMS 114 small cell lung, with SNB-78 CNS, in the experiment with DLD-1 colon, in the experiment with M19-MEL melanoma, in the experiment with DMS 273 small cell lung and in the experiment on HOP-18 NSCLC was above 100 µM throughout.
Consider `CCOC(=O)C[C@@]12CCCNC1(C)CCc1ccccc12` (stereo partly specified), for which the TGI in the experiment with DMS 114 small cell lung, in the experiment on DLD-1 colon, in the experiment with M19-MEL melanoma, in the experiment on DMS 273 small cell lung and in the experiment on HOP-18 NSCLC was above 100 µM each time.
Turning to `CC1=C(C(=O)CC(=O)C(=O)NC2C3CC4CC(C3)CC2C4)Sc2ccccc2N1` (stereo unspecified), the TGI was above 31.6 µM in the experiment with DMS 114 small cell lung; above 100 µM with SNB-78 CNS; above 100 µM in the experiment with LXFL 529 NSCLC; above 100 µM in the experiment on DLD-1 colon; above 100 µM in the experiment with M19-MEL melanoma; above 100 µM with DMS 273 small cell lung. The compound further registered a TGI in the experiment on HOP-18 NSCLC above 100 µM.
With `Cc1cc(NC(=O)NC(=O)c2ccccc2N(C)C)ccc1Oc1ncc(Br)cn1`, the GI50 in the experiment on DMS 114 small cell lung was 0.478 µM; in the experiment with LXFL 529 NSCLC, 0.658 µM; in the experiment on DLD-1 colon, 0.527 µM; in the experiment on M19-MEL melanoma, 2.51 µM. The TGI in the experiment with SNB-78 CNS was above 100 µM; in the experiment with LXFL 529 NSCLC it was above 100 µM; in the experiment on DLD-1 colon, above 100 µM; with MDA-N, 0.281 µM; in the experiment on M19-MEL melanoma it was above 100 µM; in the experiment on HOP-18 NSCLC, above 100 µM.
`COc1ccc(C2NCCc3c2[nH]c2ccccc32)cc1` (stereo unspecified): the TGI in the experiment on LXFL 529 NSCLC, in the experiment on DLD-1 colon, in the experiment with RXF-631 renal, with M19-MEL melanoma and in the experiment with HOP-18 NSCLC was above 100 µM each time.
Turning to `CC1(C)CC(=O)c2c(oc3cc(O)c(O)cc23)C1`, the TGI in the experiment with DMS 114 small cell lung was 32.5 µM; in the experiment with SNB-78 CNS, above 100 µM; in the experiment with LXFL 529 NSCLC, 91.8 µM; in the experiment with DLD-1 colon it was 53.9 µM; in the experiment with RXF-631 renal, above 100 µM; with M19-MEL melanoma, above 100 µM. Besides, the TGI with DMS 273 small cell lung and with HOP-18 NSCLC was above 100 µM throughout.
Consider `COc1ccc2[nH]c3c(=O)[nH]ncc3c2c1`, for which the TGI with DMS 114 small cell lung, in the experiment on SNB-78 CNS, with LXFL 529 NSCLC, in the experiment on DLD-1 colon, in the experiment on M19-MEL melanoma and in the experiment on DMS 273 small cell lung was above 100 µM in each case. In addition, in the experiment on HOP-18 NSCLC, the TGI was above 100 µM.
In the experiment on MDA-N, `CCCCCCCCCCCCCCCCS(=O)(=O)c1ccc(NN)cc1` came in with a TGI above 10 µM.
As for `CC(=O)OCCC(O[Si](c1ccccc1)(c1ccccc1)C(C)(C)C)C(C)(C)O` (stereo unspecified), the TGI is 53.6 µM with DMS 114 small cell lung; above 100 µM with SNB-78 CNS; above 100 µM in the experiment on LXFL 529 NSCLC; above 100 µM in the experiment with RXF-631 renal; 57.2 µM in the experiment with M19-MEL melanoma; above 100 µM in the experiment on DMS 273 small cell lung. In addition, in the experiment on HOP-18 NSCLC, the TGI stood at 91.4 µM.
In the case of `CC[P+]1(CC)CCCC1`, the TGI with DMS 114 small cell lung, in the experiment with SNB-78 CNS, in the experiment on LXFL 529 NSCLC, with DLD-1 colon, in the experiment on M19-MEL melanoma and in the experiment with DMS 273 small cell lung was above 100 µM throughout. Also, in the experiment on HOP-18 NSCLC, the TGI was above 100 µM.
With `NS(=O)(=O)c1ccc(NC(=O)c2cccn3c(=O)c4ccccc4nc23)cc1`, the TGI in the experiment on DMS 114 small cell lung, with SNB-78 CNS, in the experiment with LXFL 529 NSCLC, in the experiment on DLD-1 colon, in the experiment on RXF-631 renal and in the experiment on M19-MEL melanoma was above 100 µM each time. Also, in the experiment on HOP-18 NSCLC, the TGI was above 100 µM.
Take `C/C(=N/NC(=O)CC(=O)N(C(=O)c1ccccc1Cl)c1ccc(C)cc1)c1cc2ccccc2oc1=O`: the TGI in the experiment on DMS 114 small cell lung, in the experiment with SNB-78 CNS, in the experiment with LXFL 529 NSCLC, with DLD-1 colon, with RXF-631 renal and with M19-MEL melanoma was above 100 µM throughout. Moreover, the TGI with DMS 273 small cell lung and in the experiment on HOP-18 NSCLC was above 100 µM throughout.
On to `Cc1ccc(/C=C2\CNC/C(=C\c3ccc(C)cc3)C2=O)cc1`, for which the TGI in the experiment with DMS 114 small cell lung was 4.98 µM; in the experiment with SNB-78 CNS it was above 100 µM; in the experiment on LXFL 529 NSCLC, 2.71 µM and 2.17 µM; with DLD-1 colon it was 1.2 µM and 2.32 µM; in the experiment with MDA-N, 3.53 µM; in the experiment with M19-MEL melanoma it was 2.98 µM and 5 µM. Also, the TGI in the experiment on DMS 273 small cell lung came to 2.49 µM. The GI50 was 0.819 µM in the experiment on LXFL 529 NSCLC, 0.916 µM in the experiment on DLD-1 colon and 2.1 µM in the experiment on M19-MEL melanoma.
In the case of `CC[C@@]1(O)C(=O)OCc2c1cc1n(c2=O)Cc2cc3c(N)cccc3nc2-1`, the TGI is 0.121 µM in the experiment on DMS 114 small cell lung; above 100 µM with SNB-78 CNS; 2.98 µM in the experiment on LXFL 529 NSCLC; above 51.7 µM with DLD-1 colon; above 33.8 µM in the experiment with MDA-N; 1.69 µM in the experiment with RXF-631 renal. Also, the TGI came out at 0.654 µM with M19-MEL melanoma; 0.3 µM in the experiment on P388 leukemia; 0.111 µM in the experiment with DMS 273 small cell lung; 7.64 µM in the experiment with HOP-18 NSCLC; 1.34 µM in the experiment on SN12K1 renal; 0.375 µM with P388/ADR leukemia. Besides, the GI50 with MDA-N is 0.333 µM.
Turning to `NC(=O)C(=O)n1ncc(Cl)c(Cl)c1=O`, the TGI in the experiment with DMS 114 small cell lung was 36.6 µM; with SNB-78 CNS, 49.8 µM; in the experiment on LXFL 529 NSCLC, 29 µM; in the experiment on DLD-1 colon, 47.7 µM; in the experiment on MDA-N, above 100 µM; with M19-MEL melanoma, above 65.3 µM. The TGI is above 100 µM in the experiment on DMS 273 small cell lung and 35.1 µM in the experiment on HOP-18 NSCLC.
As for `CC(=O)[CH-]C(=O)c1ccccc1.CC(=O)[CH-]C(=O)c1ccccc1.[CH2-]CCC.[CH2-]CCC.[Sn+4]`, in the experiment with LXFL 529 NSCLC, the GI50 was 0.198 µM and the TGI came out at 0.627 µM. Moreover, in the experiment with M19-MEL melanoma, the GI50 was 0.632 µM and the TGI is 1.96 µM.
Consider `Cc1nnc(N=Nc2c(O)[nH]c3ccccc23)n1N`, for which the TGI in the experiment on DMS 114 small cell lung, in the experiment on SNB-78 CNS, in the experiment with LXFL 529 NSCLC, in the experiment on DLD-1 colon, with RXF-631 renal and with M19-MEL melanoma was above 100 µM in each case. Also, the TGI in the experiment with DMS 273 small cell lung and with HOP-18 NSCLC was above 100 µM each time.
